Laboratory results taken from US20100285000A1, “USE OF VEGFR-2 INHIBITORS FOR TREATING METASTATIC CANCER” (BRISTOL-MYERS SQUIBB COMPANY, priority 2007, published 2010).

Experiments:
[1] = Bhuyan et al. Cancer Res. 42, 3532-3537 (1982); cited from earlier work
[2] = test system: MDA-MB-231 breast cancer cells; experiment: MDA-MB-231 orthotopic model of tumor metastasis (lung metastases after resection of the primary tumor); assay type: in vivo; details: human MDA-MB-231 cells in mouse mammary fat pad, tumors resected day 24, treatment from day 28, IP twice weekly; Comp-I 30 mg/kg, bevacizumab 5 mg/kg; control cohort 84%
From the text: MDA-MB-231 breast tumor cells implanted in mammary fat pad of mice and resultant tumors resected day 24. Drug treatment was initiated on day 28 and mice were sacrificed at 118 days and local regrowth and lung metastases evaluated.
Human MDA-MB-231 breast cancer cells were implanted in the mouse mammary fat pads at day 0 (1×10^6 MDA-MB-231 breast cancer cells). The resultant tumors were resected at day 24 and treatment initiated 4 days later (Mean tumor volume at resection=400 mm^3). Treatment groups were as follows: Control: PBS, Comp-I: 30 mg/kg, and bevacizumab 5 mg/kg (100 μL IP injections twice weekly). When mice were sacrificed, the extent of local regrowth and numbers of lung metastases were evaluated.

Molecule	potency in vitro relative to commonly used anti-cancer drugs (doxorubicin, methotrexate, vincristine) [1]	mice showing lung metastases (incidence of metastases) [2]
COc1c(O)c2c(c3cc(C(=O)N4CCc5c4c(O)c(OC)c4[nH]c(C(=O)N6CC7CC78C6=CC(=O)c6[nH]cc(C)c68)cc54)[nH]c13)CCN2C(N)=O (centres unmarked) [CC-1065]	about 1000 fold	
bevacizumab		74%
